Measured values from PubChem BioAssay AID248 (DTP/NCI, 2004).
“And” between values parts separate entries of the source, which are not always exact repeats. Equal entries are not always repeated. Toxic doses and inconclusive results are not listed.

Tested on: L1210 leukemia ip in BDF1 mice, survival T/C
Assay: NCI In Vivo Anticancer Drug Screen. Data for tumor model L1210 Leukemia (intraperitoneal) in B6D2F1 (BDF1) mice
Conditions: endpoint: mean survival time, higher = longer survival
Method in brief: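 Read-out is survival time, reported as the treated-group measurement over the vehicle-control measurement.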

[1] = dose: 100.0 mg/kg/injection, schedule: Q01DX009 (ip), vehicle: Klucel (hydroxypropylcellulose) (HPC)
[2] = dose: 100.0 mg/kg/injection, schedule: Q04DX003 (ip), vehicle: Klucel (hydroxypropylcellulose) (HPC)
[3] = dose: 200.0 mg/kg/injection, schedule: Q01DX009 (ip), vehicle: Klucel (hydroxypropylcellulose) (HPC)
[4] = dose: 200.0 mg/kg/injection, schedule: Q04DX003 (ip), vehicle: Klucel (hydroxypropylcellulose) (HPC)
[5] = dose: 400.0 mg/kg/injection, schedule: Q01DX009 (ip), vehicle: Klucel (hydroxypropylcellulose) (HPC)
[6] = dose: 400.0 mg/kg/injection, schedule: Q04DX003 (ip), vehicle: Klucel (hydroxypropylcellulose) (HPC)

Cc1cc(=O)[nH]c2c1C(=O)c1c(C)cc(=O)n(C)c1C2=O
T/C (dose: 0.75 mg/kg/injection, schedule: Q01DX009 (ip), vehicle: Klucel (hydroxypropylcellulose) (HPC)): 95 % of control
T/C (dose: 1.0 mg/kg/injection, schedule: Q04DX003 (ip), vehicle: Klucel (hydroxypropylcellulose) (HPC)): 93 % of control
T/C (dose: 1.5 mg/kg/injection, schedule: Q01DX009 (ip), vehicle: Klucel (hydroxypropylcellulose) (HPC)): 100 % of control
T/C (dose: 3.0 mg/kg/injection, schedule: Q01DX009 (ip), vehicle: Klucel (hydroxypropylcellulose) (HPC)): 95 % of control and 96 % of control
T/C (dose: 3.0 mg/kg/injection, schedule: Q04DX003 (ip), vehicle: Klucel (hydroxypropylcellulose) (HPC)): 105 % of control
T/C (dose: 6.0 mg/kg/injection, schedule: Q04DX003 (ip), vehicle: Klucel (hydroxypropylcellulose) (HPC)): 92 % of control

COc1ccccc1/C=N/N=C(N)N
T/C (dose: 15.5 mg/kg/injection, schedule: Q01DX Z (ip), vehicle: other): 97 % of control
T/C (dose: 31.0 mg/kg/injection, schedule: Q01DX Z (ip), vehicle: other): 96 % of control

COc1ccccc1CCCOC(=O)c1ccc([N+](=O)[O-])cc1
T/C (dose: 100.0 mg/kg/injection, schedule: Q01DX001 (ip), vehicle: saline with Tween-80): 100 % of control
T/C (dose: 200.0 mg/kg/injection, schedule: Q01DX001 (ip), vehicle: saline with Tween-80): 95 % of control
T/C (dose: 400.0 mg/kg/injection, schedule: Q01DX001 (ip), vehicle: saline with Tween-80): 89 % of control

S=c1nc[nH]c2c1ncn2C1CCCO1 (configuration not stated)
T/C (dose: 75.0 mg/kg/injection, schedule: Q01DX Z (ip), vehicle: methylcellulose (MC)): 159 % of control

C(=C\c1cnc2ccccc2n1)/c1ccc2c(c1)OCO2
T/C [1]: 89 % of control
T/C [2]: 95 % of control
T/C [3]: 92 % of control
T/C [4]: 91 % of control
T/C [5]: 97 % of control
T/C [6]: 93 % of control

COC(=O)CC(C(=O)OC)C(=O)OC
T/C (dose: 75.0 mg/kg/injection, schedule: Q01DX001 (ip), vehicle: Klucel (hydroxypropylcellulose) (HPC)): 105 % of control
T/C (dose: 75.0 mg/kg/injection, schedule: Q01DX009 (ip), vehicle: Klucel (hydroxypropylcellulose) (HPC)): 97 % of control
T/C (dose: 150.0 mg/kg/injection, schedule: Q01DX001 (ip), vehicle: Klucel (hydroxypropylcellulose) (HPC)): 103 % of control
T/C (dose: 150.0 mg/kg/injection, schedule: Q01DX009 (ip), vehicle: Klucel (hydroxypropylcellulose) (HPC)): 105 % of control
T/C (dose: 300.0 mg/kg/injection, schedule: Q01DX001 (ip), vehicle: Klucel (hydroxypropylcellulose) (HPC)): 90 % of control
T/C (dose: 300.0 mg/kg/injection, schedule: Q01DX009 (ip), vehicle: Klucel (hydroxypropylcellulose) (HPC)): 105 % of control

O=C(O)C(CSSCC(NS(=O)(=O)Cc1ccccc1)C(=O)O)NS(=O)(=O)Cc1ccccc1 (configuration not stated)
T/C (dose: 100.0 mg/kg/injection, schedule: Q04DX003 (ip), vehicle: other): 97 % of control
T/C (dose: 200.0 mg/kg/injection, schedule: Q04DX003 (ip), vehicle: other): 92 % of control
T/C (dose: 400.0 mg/kg/injection, schedule: Q04DX003 (ip), vehicle: other): 93 % of control

OC1C(Br)C2C3CC4C(C13)C42 (configuration not stated)
T/C (dose: 50.0 mg/kg/injection, schedule: Q04DX002 (ip), vehicle: Klucel (hydroxypropylcellulose) (HPC)): 97 % of control
T/C (dose: 100.0 mg/kg/injection, schedule: Q04DX002 (ip), vehicle: Klucel (hydroxypropylcellulose) (HPC)): 89 % of control
T/C (dose: 200.0 mg/kg/injection, schedule: Q04DX002 (ip), vehicle: Klucel (hydroxypropylcellulose) (HPC)): 93 % of control

CCOC(=O)c1cnc(SC)nc1NCc1ccccc1Cl
T/C [1]: 102 % of control
T/C [2]: 106 % of control
T/C [3]: 97 % of control
T/C [4]: 105 % of control
T/C [5]: 97 % of control
T/C [6]: 95 % of control

COC(=O)NC(=S)Nc1ccccc1NC(=S)NC(=O)OC
T/C (dose: 25.0 mg/kg/injection, schedule: Q01DX009 (ip), vehicle: Klucel (hydroxypropylcellulose) (HPC)): 94 % of control
T/C (dose: 50.0 mg/kg/injection, schedule: Q01DX009 (ip), vehicle: Klucel (hydroxypropylcellulose) (HPC)): 102 % of control
T/C [1]: 105 % of control
T/C [2]: 96 % of control
T/C [4]: 99 % of control
T/C [6]: 87 % of control
